{"source": "patent US11072588B2", "about": "“Barbituric acid derivatives comprising cationic and lipophilic groups” (UNIVERSITETET I TROMSØ—NORGES ARKTISKE UNIVERSITET, priority 2017, dated 2021)", "type_in_all_cases": "cell-based", "key": {"[1]": {"tested_on": "human metastatic melanoma (A2058, ATCC CRL-11147) cells", "test": "Anti-cancer activity against A2058 cells", "conditions": "A2058, read-out: Anti-cancer IC50", "description": "Cytotoxicity of the test compounds was evaluated after 72 hour exposure to human metastatic melanoma (A2058, ATCC CRL-11147) cells.\nA2058 cells were grown overnight (2,000 cells/well), and then incubated with the test compounds (range of concentrations) diluted in MEM Earle's supplemented with gentamycin (10 μg/mL), non-essential amino acids (1%), sodium pyruvate (1 mM), L-alanyl-Lglutamine (2 mM), but without FBS (total volume was 100 μl) for […]. Ten μL of CellTiter 96® AQueous One Solution Reagent (Promega, Madison, Wis., USA) was added, and the plates were then further incubated for 1 hour.\nAbsorbance was measured at 485 nm in a DTX 880 Multimode Detector. Results were calculated as % survival compared to negative (assay media) and positive (Triton X-100; Sigma-Aldrich) controls."}, "[2]": {"tested_on": "Corynebacterium glutamicum ATCC 13032", "test": "MIC assay, antibiotic susceptible reference strain", "conditions": "ATCC13032; Corynebacterium glutamicum ATCC 13032; read-out: Antimicrobial activity (MIC) C. g", "description": "(§1) Working solutions of the test derivatives were prepared with up to 100% DMSO and stored at −20° C. If necessary, the solutions were heated to 40-80° C. before testing to facilitate complete dissolution. Double-distilled water was used in all dilutions prepared. […] A microdilution susceptibility test was used for MIC determination according to Clinical and Laboratory Standards Institute, “Methods for Dilution Antimicrobial Sisceptibility Tests for Bacteria That Graw Aerobically”, Approved Standard M07-A9, edition 2012, with modifications as described by Igumnova et al (Bioorg Med Chem, 2016, 24 (22), 5884-5894).\n(§2) Briefly, the bacterial inoculum was adjusted to approximately 2.5-3×10^4 cells/mL in Mueller-Hinton broth (MHB, Difco Laboratories, USA), and incubated in a ratio of 1:1 with test derivatives in polystyrene 96-well flat-bottom microplates (NUNC, Roskilde, Denmark). Positive growth control (without test derivatives) and negative control (without bacteria) were included. The reference antibiotic was oxytetracycline hydrochloride (Sigma Aldrich, Saint Louis, Mo., USA). The microplates were incubated in an EnVision microplate reader (Perkin-Elmer, Turku, Finland) placed in an incubator set to 35° C. for 48 h. The MIC value was defined as the lowest concentration of derivative resulting in no bacterial growth as determined by OD600 measurement. All derivatives were tested in three parallels."}, "[3]": {"tested_on": "Pseudomonas aeruginosa PA01, DSM 19880 (ATCC 15692)", "test": "MIC assay, antibiotic susceptible reference strain", "conditions": "Pseudomonas aeruginosa PA01, DSM 19880 (ATCC 15692); read-out: Antimicrobial activity (MIC) P. a", "description": "as §1, §2"}, "[4]": {"tested_on": "Escherichia coli ATCC 25922", "test": "MIC assay, antibiotic susceptible reference strain", "conditions": "ATCC25922; Escherichia coli ATCC 25922; read-out: Antimicrobial activity (MIC) E. c", "description": "as §1, §2"}, "[5]": {"tested_on": "Staphylococcus aureus ATCC 9144", "test": "MIC assay, antibiotic susceptible reference strain", "conditions": "ATCC9144; Staphylococcus aureus ATCC 9144; read-out: Antimicrobial activity (MIC) S. a", "description": "as §1, §2"}}, "data": [{"smiles": "NCCCCN1C(=O)N(CCCCN)C(=O)C(CCCc2ccccc2)(CCCc2ccccc2)C1=O", "note": "[Compound 9]", "values": [{"measurement": "IC50", "setting": "[1]", "value": 2.9, "unit": "µg/mL"}]}, {"smiles": "CN(C)[C@@H]1C(O)=C(C(N)=O)C(=O)[C@@]2(O)C(O)=C3C(=O)c4c(O)cccc4[C@@](C)(O)[C@H]3[C@H](O)[C@@H]12", "note": "[Oxytetracycline, reference compound]", "values": [{"measurement": "MIC", "setting": "[2]", "value": 0.65, "unit": "µg/mL"}, {"measurement": "MIC", "setting": "[3]", "value": 20, "unit": "µg/mL"}, {"measurement": "MIC", "setting": "[4]", "value": 2.5, "unit": "µg/mL"}, {"measurement": "MIC", "setting": "[5]", "value": 0.65, "unit": "µg/mL"}]}]}
